For 25 compounds, EC50 results are on record in patent US20220396569A1 (Carmot Therapeutics, Inc., priority 2021, published 2022).

Molecules are shown by their SMILES.

In the assay the target is T1, human GLP-1 receptor (Homo sapiens, UniProt P43220).
T1 construct: expressed in transfected cells
As to the kind of experiment: GLP-1R cAMP Assay (HitHunter cAMP accumulation). The format is cell-based. To be noted: cAMP accumulation, CHO cells stably overexpressing human GLP-1 receptor, 30 min treatment; read-out: EC50. In outline:
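CHO cells stably expressing human GLP-1R, 10,000 cells/well in HBSS with 10 mM HEPES and 625 μM IBMX, were mixed with anti-cAMP antibody reagent. Compound was applied as a 20-point dose response in triplicate for 30 min. After lysis and overnight detection, luminescence was read and dose-response curves analysed.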

T1 sequence (P43220 24-463): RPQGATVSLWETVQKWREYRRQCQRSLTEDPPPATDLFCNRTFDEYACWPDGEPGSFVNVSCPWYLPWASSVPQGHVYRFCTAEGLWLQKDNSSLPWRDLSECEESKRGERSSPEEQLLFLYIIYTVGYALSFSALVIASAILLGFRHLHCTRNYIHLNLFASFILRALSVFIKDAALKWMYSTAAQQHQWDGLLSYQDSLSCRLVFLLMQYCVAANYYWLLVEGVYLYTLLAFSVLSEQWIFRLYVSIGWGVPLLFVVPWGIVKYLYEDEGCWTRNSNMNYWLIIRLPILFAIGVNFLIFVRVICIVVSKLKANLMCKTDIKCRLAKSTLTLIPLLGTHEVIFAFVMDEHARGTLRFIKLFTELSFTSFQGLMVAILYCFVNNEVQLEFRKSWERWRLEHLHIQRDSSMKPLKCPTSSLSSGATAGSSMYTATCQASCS

As for `CCn1cncc1Cn1c(CN2CCC(Cc3cccc4c3OC(C)(c3ccc(Cl)cc3F)O4)CC2)nc2ccc(C(=O)O)cc21` (stereo not shown) [Compound 209], the concentration for a half-maximal effect (EC50) was below 50 nM. The result for `O=C(O)c1ccc2nc(Cc3ccc(Oc4ccnc(COc5ccc(Cl)cc5F)c4)cc3F)n(C[C@@H]3CCO3)c2c1` [Compound 466, 2-{[4-({2-[(4-chloro-2-fluorophenoxy)methyl]pyridin-4-yl}oxy)-2-fluorophenyl]methyl}-1-{[(2S)-oxetan-2-yl]methyl}-1H-1,3-bcnzodiazole-6-carboxylic acid] reads below 50 nM. The result for `O=C(O)c1cc(F)c2nc(CN3CCC(c4nc(COc5ccc(Cl)cc5F)ccc4F)C3)n(C[C@@H]3CCO3)c2c1` (stereo partly drawn) [Compound 457, 2-[(3-{6-[(4-chloro-2-fluorophenoxy)methyl]-3-fluoropyridin-2-yl}pyrrolidin-1-yl)methyl]-4-fluoro-1-{[(2S)-oxetan-2-yl]methyl}-1H-1,3-benzodiazole-6-carboxylic acid] reads below 50 nM; that for `CCn1cncc1Cn1c(Cc2ccc(Oc3cccc(COc4ccc(Cl)cc4F)n3)cc2F)nc2ccc(C(=O)O)cc21` [Compound 463, 2-{[4-({6-[(4-chloro-2-fluorophenoxy)methyl]pyridin-2-yl}oxy)-2-fluorophenyl]methyl}-1-[(1-ethyl-1H-imidazol-5-yl)methyl]-1H-1,3-benzodiazole-6-carboxylic acid], below 50 nM; that for `N#Cc1ccc(OCc2nc([C@H]3CCN(Cc4nc5c(F)cc(C(=O)O)cc5n4C[C@@H]4CCO4)C3)ccc2F)c(F)c1` [Compound 455, 2-{[(3S)-3-{6-[(4-cyano-2-fluorophenoxy)methyl]-5-fluoropyridin-2-yl}pyrrolidin-1-yl]methyl}-4-fluoro-1-{[(2S)-oxetan-2-yl]methyl}-1H-1,3-benzodiazole-6-carboxylic acid], 50 to 500 nM. The result for `N#CCC1(Cn2c(CN3CC[C@H](c4ccnc(COc5ccc(Cl)cc5F)c4)C3)nc3c(F)cc(C(=O)O)cc32)CC1` [Compound 434, 2-{[(3R)-3-{2-[(4-chloro-2-fluorophenoxy)methyl]pyridin-4-yl}pyrrolidin-1-yl]methyl}-1-{[1-(cyanomethyl)cyclopropyl]methyl}-4-fluoro-1H-1,3-benzodiazole-6-carboxylic acid] reads 50 to 500 nM. Consider `CCn1cncc1Cn1c(CN2C[C@H](Oc3cccc(COc4ccc(Cl)cc4Cl)c3)[C@@H]2C)nc2ccc(C(=O)O)cc21` [Example 233, 2-(((2S,3S)-3-(3-((2,4-Dichlorophenoxy)methyl)phenoxy)-2-methylazetidin-1-yl)methyl)-1-((1-ethyl-1H-imidazol-5-yl)methyl)-1H-benzo[d]imidazole-6-carboxylic acid], for which the EC50 is below 50 nM. The result for `CCn1cncc1Cn1c(CN2CC[C@H](Oc3ccnc(COc4ccc(Cl)cc4Cl)c3)C2)nc2ccc(C(=O)O)cc21` [Example 244, (S)-2-((3-((2-((2,4-Dichlorophenoxy)methyl)pyridin-4-yl)oxy)pyrrolidin-1-yl)methyl)-1-((1-ethyl-1H-imidazol-5-yl)methyl)-1H-benzo[d]imidazole-6-carboxylic acid] reads below 50 nM. For `N#CCC1(Cn2c(CN3CC=C(c4ccc(F)c(COc5ccc(C#N)cc5F)n4)C3)nc3c(F)cc(C(=O)O)cc32)CC1` [Compound 424, 2-[(3-{6-[(4-cyano-2-fluorophenoxy)methyl]-5-fluoropyridin-2-yl}-2,5-dihydro-1H-pyrrol-1-yl)methyl]-1-{[1-(cyanomethyl)cyclopropyl]methyl}-4-fluoro-1H-1,3-benzodiazole-6-carboxylic acid] the value was below 50 nM. For `O=C(O)c1ccc2nc(CN3CC(Oc4cccc(COc5ccc(Cl)cc5Cl)c4)C3)n(Cc3cnco3)c2c1` [Compound 238, 2-[(3-{3-[(2,4-dichlorophenoxy)methyl]phenoxy}azetidin-1-yl)methyl]-1-[(1,3-oxazol-5-yl)methyl]-1H-1,3-benzodiazole-6-carboxylic acid], the concentration giving a half-maximal response (EC50) was below 50 nM. For `N#Cc1ccc(OCc2cccc([C@@H]3CCN(Cc4nc5ccc(C(=O)O)cc5n4C[C@@H]4CCO4)C3)c2)c(F)c1` [Compound 414, 2-{[(3S)-3-{3-[(4-cyano-2-fluorophenoxy)methyl]phenyl}pyrrolidin-1-yl]methyl}-1-{[(2S)-oxetan-2-yl]methyl}-1H-1,3-benzodiazole-6-carboxylic acid] the value was below 50 nM; for `N#Cc1ccc(OCc2nc(C34CC3CN(Cc3nc5ccc(C(=O)O)cc5n3C[C@@H]3CCO3)C4)ccc2F)c(Cl)c1` (stereo partly drawn) [Compound 524, 2-[(1-{6-[(2-chloro-4-cyanophenoxy)methyl]-5-fluoropyridin-2-yl}-3-azabicyclo[3.1.0]hexan-3-yl)methyl]-1-{[(2S)-oxetan-2-yl]methyl}-1H-1,3-benzodiazole-6-carboxylic acid], below 50 nM; for `N#CCC1(Cn2c(CN3CC=C(c4ccc(F)c(COc5ccc(Cl)cc5F)n4)C3)nc3c(F)cc(C(=O)O)cc32)CC1` [Compound 430, 2-[(3-{6-[(4-chloro-2-fluorophenoxy)methyl]-5-fluoropyridin-2-yl}-2,5-dihydro-1H-pyrrol-1-yl)methyl]-1-{[1-(cyanomethyl)cyclopropyl]methyl}-4-fluoro-1H-1,3-benzodiazole-6-carboxylic acid], below 50 nM. For `O=C(O)c1ccc2nc(CN3CC=C(c4cccc(COc5ccc(Cl)cc5Cl)c4)C3)n(C[C@@H]3CCO3)c2c1` [Compound 401, 2-[(3-{3-[(2,4-dichlorophenoxy)methyl]phenyl}-2,5-dihydro-1H-pyrrol-1-yl)methyl]-1-{[(2S)-oxetan-2-yl]methyl}-1H-1,3-benzodiazole-6-carboxylic acid] the value was below 50 nM; for `CCn1cncc1Cn1c(Cc2ccc(Oc3ccnc(COc4ccc(C#N)cc4F)n3)cc2F)nc2ccc(C(=O)O)cc21` [Example 460, 2-(4-((2-((4-Cyano-2-fluorophenoxy)methyl)pyrimidin-4-yl)oxy)-2-fluorobenzyl)-1-((1-ethyl-1H-imidazol-5-yl)methyl)-1H-benzo[d]imidazole-6-carboxylic acid], below 50 nM. Regarding `O=C(O)c1cc(F)c2nc(CN3CC[C@@H](c4ccnc(COc5ccc(Cl)cc5F)c4)C3)n(C[C@@H]3CCO3)c2c1` [Compound 428, 2-{[(3S)-3-{2-[(4-chloro-2-fluorophenoxy)methyl]pyridin-4-yl}pyrrolidin-1-yl]methyl}-4-fluoro-1-{[(2S)-oxetan-2-yl]methyl}-1H-1,3-benzodiazole-6-carboxylic acid], the EC50 is below 50 nM. The result for `N#Cc1ccc(OCc2nc([C@@H]3CCN(Cc4nc5ccc(C(=O)O)cc5n4C[C@@H]4CCO4)C3)ccc2F)c(F)c1` (single isomer, unassigned) [Compound 518] reads below 50 nM. For `CCn1cncc1Cn1c(CN2CC(Cc3cnc(COc4ccc(Cl)cc4C#N)o3)C2)nc2ccc(C(=O)O)cc21` [Compound 167, 2-{[3-({2-[(4-chloro-2-cyanophenoxy)methyl]-1,3-oxazol-5-yl}methyl)azetidin-1-yl]methyl}-1-[(1-ethyl-1H-imidazol-5-yl)methyl]-1H-1,3-benzodiazole-6-carboxylic acid] the value was below 50 nM; for `N#Cc1ccc(OCc2nc(C3C[C@H](CF)N(Cc4nc5ccc(C(=O)O)cc5n4C[C@@H]4CCO4)C3)ccc2F)c(F)c1` (mixture of isomers) [Compound 528, 2-(((2R)-4-(6-((4-Cyano-2-fluorophenoxy)methyl)-5-fluoropyridin-2-yl)-2-(fluoromethyl)pyrrolidin-1-yl)methyl)-1-(((S)-oxetan-2-yl)methyl)-1H-benzo[d]imidazole-6-carboxylic acid], below 50 nM. For `N#Cc1ccc(OCc2ccc(F)c(C3=CCN(Cc4nc5ccc(C(=O)O)cc5n4C[C@@H]4CCO4)C3)n2)c(Cl)c1` [Compound 458, 2-[(3-{6-[(2-chloro-4-cyanophenoxy)methyl]-3-fluoropyridin-2-yl}-2,5-dihydro-1H-pyrrol-1-yl)methyl]-1-{[(2S)-oxetan-2-yl]methyl}-1H-1,3-benzodiazole-6-carboxylic acid] the value was below 50 nM; for `CCn1cncc1Cn1c(CN2C[C@H](Oc3ccnc(COc4ccc(Cl)cc4Cl)c3)[C@@H]2C)nc2ccc(C(=O)O)cc21` [Compound 273, 2-{[(2S,3S)-3-({2-[(2,4-dichlorophenoxy)methyl]pyridin-4-yl}oxy)-2-methylazetidin-1-yl]methyl}-1-[(1-ethyl-1H-imidazol-5-yl)methyl]-1H-1,3-benzodiazole-6-carboxylic acid], below 50 nM. Consider `CCn1cncc1Cn1c(CN2CCC(c3cccc(Oc4ccccc4)c3)C2)nc2ccc(C(=O)O)cc21` (racemic) [Example 134, 1-((1-Ethyl-1H-imidazol-5-yl)methyl)-2-((3-(3-phenoxyphenyl)pyrrolidin-1-yl)methyl)-1H-benzo[d]imidazole-6-carboxylic acid], for which the EC50 lay in the range of 50 to 500 nM.

On to `O=C(O)c1ccc2nc(CN3CCC(c4nc(COc5ccc(Cl)cc5F)ccc4F)C3)n(C[C@@H]3CCO3)c2c1` (stereo partly drawn) [Compound 456, 2-[(3-{6-[(4-chloro-2-fluorophenoxy)methyl]-3-fluoropyridin-2-yl}pyrrolidin-1-yl)methyl]-1-{[(2S)-oxetan-2-yl]methyl}-1H-1,3-benzodiazole-6-carboxylic acid], for which the EC50 is below 50 nM.

Regarding `O=C(O)c1ccc2nc(CN3CC=C(c4cc(COc5ccc(Cl)cc5F)ncc4F)C3)n(C[C@@H]3CCO3)c2c1` [Compound 440, 2-[(3-{2-[(4-chloro-2-fluorophenoxy)methyl]-5-fluoropyridin-4-yl}-2,5-dihydro-1H-pyrrol-1-yl)methyl]-1-{[(2S)-oxetan-2-yl]methyl}-1H-1,3-benzodiazole-6-carboxylic acid], the EC50 is below 50 nM. For `O=C(O)c1ccc2nc(CN3CC=C(c4cncc(COc5ccc(Cl)cc5F)n4)C3)n(C[C@@H]3CCO3)c2c1` [Example 396, (S)-2-((3-(6-((4-Chloro-2-fluorophenoxy)methyl)pyrazin-2-yl)-2,5-dihydro-1H-pyrrol-1-yl)methyl)-1-(oxetan-2-ylmethyl)-1H-benzo[d]imidazole-6-carboxylic acid] the value was below 50 nM.
